Key:
DU145 (Prostate Cancer) = test: Cellular growth inhibition assay (MTT), DU145; assay type: cell-based; details: Homo sapiens
Description: (§1) For screening purposes, compounds were diluted in 96 well plates at a concentration of 20 μM. Plates were warmed at 37° C. for 30 minutes before assay.
(§2) K562 (Chronic Myeloid Leukemia), PC3 (Prostate Cancer), and DU145 (Prostate Cancer) were obtained from the American Type Culture Collection (ATCC). K562 was grown in RPMI, with 10% FBS with Glutamx added. DU145 cells were cultured in DMED, with 10% FBS and Glutamx and MEM non-essential amino acids added. PC3 cells were grown in F12K medium, with 10% FBS and Glutamx and MEM non-essential amino acids added. All cells were grown at 37° C. in 5% CO2.
(§3) Cell suspensions were prepared by harvesting cells from culture. (Cells used in this test should be in later log phase growth and high viability.) Cells were diluted in correct growth medium to 1.1× final concentration (from 50000 cell/mL to 200,000 cell/mL, depending on cell line).
(§4) Compounds to be tested were added (10 μL, 10× final concentration) to a flat bottom 96-well plate. The cellular suspension (90 μL per well) was added, and the plate incubated for 40 hr at 37° C., 5% CO2. MTT (20 μL per well, 5 mg/mL in PBS) was added and the plates were returned to the incubator for a further 6 hours. Lysis buffer (100 μL per well, 10% SDS, 0.01N HCl) was added and the plate stored in the incubator overnight. The plate was then read at 590 nm.

PC3 (Prostate Cancer) = test: Cellular growth inhibition assay (MTT), PC3; assay type: cell-based; details: Table 1, 40 hr incubation
Description: as §1, §2, §3, §4

[1] = test system: K562 (Chronic Myeloid Leukemia); test: Cellular growth inhibition assay (MTT), K562; assay type: cell-based; details: Homo sapiens, Table 1, 40 hr incubation
Description: as §1, §2, §3, §4

[2] = target: T1, TelJak2 (BaF3 TELJAK cells, TEL/Jak2 fusion) (Homo sapiens, UniProt O60674); test: Cellular growth inhibition assay (MTT), BaF3 TEL:JAK2 cell line; assay type: cell-based
T1 construct: The regions encompassing the kinase domain of JAK2 (nucleotides 2994-3914); expressed in transfected cells; host or cells: BaF3 cells bearing the pTET-off plasmid, transfected with pTELJAK2 (pTRE2 vector); the other entry of the earlier key: ETV6 (P41212, Transcription factor ETV6)
Description: as §1
(§5) The coding region encompassing nucleotides 1-487 of TEL was amplified by PCR using the oligonucleotides 5TEL (5′-GGAGGATCCTGATCTCTCTCGCTGTGAGAC-3′) (SEQ ID NO: 1) and 3TEL (5′-AGGC GTCGACTTCTTCTTGATGGTTCTG-3′) (SEQ ID NO: 2) and U937 mRNA as template. A BamH I site was incorporated into the 5TEL primer, and a Sal I site was incorporated into the 3TEL primer. The regions encompassing the kinase domain of JAK2 (nucleotides 2994-3914; JAK2F 5′-ACGC GTCGACGGTGCCTTTGAAGACCGGGAT-3 (SEQ ID NO: 3); JAK2R 5′-ATAGTTTAGCGGCCGCTCAGAATGAAGGTCATTT-3′) (SEQ ID NO: 4) and JAK3 (nucleotides 2520-3469; JAK3F 5′-GAAGTCGACTATGCCTGCCAAGACCCCACGATCTT-3′ (SEQ ID NO: 5); JAK3R 5′-GGATCTAGACTATGAAAAGGACAGGGAGTGGTGTTT-3′ (SEQ ID NO: 6)) were generated by PCR using Taq DNA polymerase (Gibco/BRL) and U937 mRNA as template. A Sal I site was incorporated into the forward primer of JAK2 and JAK3, a Not I site was incorporated into the JAK2 reverse primer and a Xba I site was added to the reverse primer of JAK3.
(§6) A TEL/Jak2 fusion was generated by digestion of the TELPCR product with BamH I/Sa1 I, digestion of the JAK2 PCR product with Sa1 I/Not I followed by ligation and subcloning into the mammalian expression Vector pTRE 2 (Clontech) digested with BamH I-Not I (pTELJAK2). For JAK3 Sa1 I/Not I cleaved kinase domain PCR product was ligated with BamH I/Sa1 I cleaved TELproduct followed by ligation into BamH I/Not I cleaved pTRE2 (pTELJAK3).
(§7) The growth factor dependent myelomonocytic cell line BaF3 bearing the pTET-off plasmid (Clontech) was transfected with either pTELJAK2 or pTELJAK3 and the cells selected for factor independent growth. BaF 3 wild type cells were cultured in DMEM 10% FCS, 10% WEHI 3B conditioned medium. BaF3 TELJAK cells were cultured in DMEM 10% Tet-System Approved FBS (without WEHI 3B conditioned medium).
as §3, §4

[3] = target: T2, TelJak3 (BaF3 TELJAK cells, TEL/JAK3 fusion) (Homo sapiens, UniProt P52333); test: Cellular growth inhibition assay (MTT), BaF3 TEL:JAK3 cell line; assay type: cell-based
T2 construct: For JAK3 Sa1 I/Not I cleaved kinase domain PCR product was ligated with BamH I/Sa1 I cleaved TELproduct; expressed in transfected cells; host or cells: BaF3 cells bearing the pTET-off plasmid, transfected with pTELJAK3 (pTRE2 vector); the other entry of the earlier key: ETV6 (P41212, Transcription factor ETV6)
Description: as §1, §5, §6, §7, §3, §4

[4] = test system: Tubulin (microtubule protein); test: Tubulin assay (turbidometric assay of microtubule assembly); assay type: biochemical; details: 50 μM, absorbance at 340 nm, 37° C.
Description: Turbidometric assays of microtubule assembly were performed by incubating microtubule protein in cuvettes at 37° C. in a thermostatically controlled spectrophotometer measuring the change in absorbance at 340 nm over time. The microtubule protein was incubated with the each test compound at 0° C. and polymerisation was initiated by addition of 1 mM GTP, prior to heating to 37° C.

[5] = DU-145, Table 1, 40 hr incubation
[6] = DU-145, Table 2, 40 hr incubation

T2 sequence (P52333 with tags, fused parts or gaps): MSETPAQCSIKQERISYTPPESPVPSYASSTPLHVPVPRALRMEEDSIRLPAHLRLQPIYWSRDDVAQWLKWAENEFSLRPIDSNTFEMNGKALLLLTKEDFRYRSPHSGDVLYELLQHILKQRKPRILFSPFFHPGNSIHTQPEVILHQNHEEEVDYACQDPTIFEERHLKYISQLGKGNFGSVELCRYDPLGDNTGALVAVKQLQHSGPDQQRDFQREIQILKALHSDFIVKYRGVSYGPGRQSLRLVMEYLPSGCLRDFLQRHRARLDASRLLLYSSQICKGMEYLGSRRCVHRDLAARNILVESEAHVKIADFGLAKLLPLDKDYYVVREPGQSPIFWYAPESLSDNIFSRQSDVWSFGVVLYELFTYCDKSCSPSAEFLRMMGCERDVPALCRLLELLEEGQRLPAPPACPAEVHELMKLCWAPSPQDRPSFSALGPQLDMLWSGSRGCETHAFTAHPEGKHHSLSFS
T1 sequence (O60674 with tags, fused parts or gaps): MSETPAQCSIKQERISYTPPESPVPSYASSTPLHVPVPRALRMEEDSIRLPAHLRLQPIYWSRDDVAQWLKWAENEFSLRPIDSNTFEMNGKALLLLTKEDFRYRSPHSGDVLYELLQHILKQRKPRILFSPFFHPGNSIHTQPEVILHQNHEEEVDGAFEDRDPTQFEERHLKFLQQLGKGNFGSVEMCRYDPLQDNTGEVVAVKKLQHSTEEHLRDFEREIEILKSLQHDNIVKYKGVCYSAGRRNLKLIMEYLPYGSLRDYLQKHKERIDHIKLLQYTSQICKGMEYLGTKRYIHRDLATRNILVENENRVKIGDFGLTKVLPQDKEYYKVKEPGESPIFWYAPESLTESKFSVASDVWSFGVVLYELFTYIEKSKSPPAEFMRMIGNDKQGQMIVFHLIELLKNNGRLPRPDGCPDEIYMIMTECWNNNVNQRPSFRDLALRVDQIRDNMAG

Compound	inhibition at 20 µM (DU145 (Prostate Cancer); [5]) [%]	inhibition at 20 µM (PC3 (Prostate Cancer)) [%]	inhibition at 20 µM [1] [%]	inhibition at 20 µM ([2]; Table 1, 40 hr incubation) [%]	inhibition at 20 µM ([3]; Table 1, 40 hr incubation) [%]	Tubulin inhibition of tubulin polymerisation ([4]; Table 1)	inhibition at 20 µM (DU145 (Prostate Cancer); [6]) [%]	inhibition at 20 µM ([2]; Table 2, 40 hr incubation) [%]	inhibition at 20 µM ([3]; Table 2, 40 hr incubation) [%]	Tubulin inhibition of tubulin polymerisation ([4]; Table 2)
CCCC(Nc1cncc(-c2ccc(OCCCO)c(OC)c2)n1)c1ccccc1 (stereo not drawn)	> 50	> 50	> 50	> 50	> 50	+ (compounds which inhibited tubulin polymerisation by greater than 50% at 50 μM)	–	–	–	–
CCCC(Nc1cncc(-c2ccc(C(=O)NCCN(C)C)cc2)n1)c1ccccc1 (stereo not drawn)	< 50	< 50	< 50	> 50	> 50	–	–	–	–	–
CCCC(Nc1cncc(-c2ccc(C(=O)NCCCN(CC)CC)cc2)n1)c1ccccc1 (stereo not drawn)	> 50	< 50	> 50	> 50	> 50	–	–	–	–	–
CCCC(Nc1cncc(-c2ccc(C(=O)NCCCN3CCOCC3)cc2)n1)c1ccccc1 (stereo not drawn)	< 50	< 50	< 50	> 50	> 50	–	–	–	–	–
CCCC(Nc1cncc(-c2ccc(NC(=O)NCC)c(C)c2)n1)c1cccnc1 (stereo not drawn)	> 50	> 50	> 50	> 50	> 50	+ (compounds which inhibited tubulin polymerisation by greater than 50% at 50 μM)	–	–	–	–
CCCC(Nc1cncc(-c2ccc(NC(=O)NCCCN3CCOCC3)c(OC)c2)n1)c1cccnc1 (stereo not drawn)	> 50	> 50	> 50	> 50	> 50	+ (compounds which inhibited tubulin polymerisation by greater than 50% at 50 μM)	–	–	–	–
CCCC(Nc1cncc(-c2ccc(NC(=O)NCCN(C)C)c(OC)c2)n1)c1cccnc1 (stereo not drawn)	> 50	> 50	> 50	> 50	> 50	+ (compounds which inhibited tubulin polymerisation by greater than 50% at 50 μM)	–	–	–	–
CCCC(Nc1cncc(-c2ccc(NC(=O)NCC)c(CC)c2)n1)c1cccnc1 (stereo not drawn)	> 50	> 50	> 50	> 50	> 50	+ (compounds which inhibited tubulin polymerisation by greater than 50% at 50 μM)	–	–	–	–
CCCC(Nc1cncc(-c2ccc(NC(=O)NCC)c(OC)c2)n1)c1cncc(C)c1 (stereo not drawn)	> 50	> 50	> 50	> 50	> 50	+ (compounds which inhibited tubulin polymerisation by greater than 50% at 50 μM)	–	–	–	–
CCC[C@H](Nc1cncc(-c2ccc(NC(=O)NCC)c(OC)c2)n1)c1cccnc1	> 50	> 50	> 50	> 50	> 50	+ (compounds which inhibited tubulin polymerisation by greater than 50% at 50 μM)	–	–	–	–
CCC[C@H](Nc1cncc(-c2ccc(NC(=O)NCC)c(C)c2)n1)c1cccnc1	> 50	> 50	> 50	> 50	> 50	+ (compounds which inhibited tubulin polymerisation by greater than 50% at 50 μM)	–	–	–	–
CCCC(Nc1cncc(-c2ccc(NC(=O)NCC)c(C)c2)n1)c1ccccn1 (stereo not drawn)	> 50	> 50	> 50	> 50	> 50	+ (compounds which inhibited tubulin polymerisation by greater than 50% at 50 μM)	–	–	–	–
CCCC(Nc1cncc(-c2ccc(NC(=O)NCC)c(OC)c2)n1)c1ccccn1 (stereo not drawn)	> 50	> 50	> 50	> 50	> 50	+ (compounds which inhibited tubulin polymerisation by greater than 50% at 50 μM)	–	–	–	–
CCCC(Nc1cncc(-c2ccc(NC(=O)NCC)c(OC)c2)n1)c1cnccc1C (stereo not drawn)	> 50	> 50	> 50	> 50	> 50	+ (compounds which inhibited tubulin polymerisation by greater than 50% at 50 μM)	–	–	–	–
COc1cc(-c2cncc(NC(C)c3ccc(-c4cccnc4)cc3)n2)ccc1O (stereo not drawn)	–	–	–	–	–	–	> 50	> 50	> 50	+ (compounds which inhibited tubulin polymerisation by greater than 50% at 50 μM)
COc1cc(-c2cncc(NC(C)c3cccc(NC(=O)[C@H]4CCCN4)c3)n2)ccc1O (stereo partly drawn)	–	–	–	–	–	–	> 50	> 50	> 50	+ (compounds which inhibited tubulin polymerisation by greater than 50% at 50 μM)
CC[C@H](Nc1cncc(-c2ccc(O)c(OC)c2)n1)c1ccccc1	–	–	–	–	–	–	> 50	> 50	> 50	+ (compounds which inhibited tubulin polymerisation by greater than 50% at 50 μM)
COc1cc(-c2cncc(N[C@@H](C)c3ccccc3)n2)ccc1O	–	–	–	–	–	–	> 50	> 50	> 50	+ (compounds which inhibited tubulin polymerisation by greater than 50% at 50 μM)
COc1cc(-c2cncc(NC(C)c3cccc(NC(=O)c4cccnc4)c3)n2)ccc1O (stereo not drawn) [drawing 124]	–	–	–	–	–	–	–	–	–	+ (compounds which inhibited tubulin polymerisation by greater than 50% at 50 μM)
COc1cc(-c2cncc(NC(C)c3cccc(NC(=O)c4cccnc4)c3)n2)ccc1O (stereo not drawn) [drawing 127]	–	–	–	–	–	–	> 50	> 50	> 50	+ (compounds which inhibited tubulin polymerisation by greater than 50% at 50 μM)

Reference: patent US9732046B2, “Substituted 1,2,4-triazines as tubulin inhibitors” (YM Biosciences Australia Pty Ltd., priority 2003, dated 2017)
